Measurements from article PMC2213148 (The Journal of Experimental Medicine, 2005).
Values belong to the molecule of their own block, whether it stands above or below them.

Key:
PPAR-γ = biological target: T1, PPAR-γ (Homo sapiens, UniProt P37231); test: competitive radioligand binding with [3H]rosiglitazone on purified LBD
T1 sequence (P37231 231-505 limits assumed): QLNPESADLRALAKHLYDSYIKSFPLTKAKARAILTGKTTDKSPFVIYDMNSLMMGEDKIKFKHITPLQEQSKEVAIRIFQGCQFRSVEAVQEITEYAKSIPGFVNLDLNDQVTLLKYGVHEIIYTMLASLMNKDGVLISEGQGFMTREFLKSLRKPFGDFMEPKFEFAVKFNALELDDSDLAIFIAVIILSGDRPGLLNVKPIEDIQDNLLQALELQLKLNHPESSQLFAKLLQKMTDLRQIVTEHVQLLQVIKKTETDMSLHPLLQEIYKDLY

[1] = biological target: GST-DRIP-205 fusion protein (UniProt Q15648 1-1581); test: pull-down
Sequence of GST-DRIP-205 fusion protein (Q15648 whole entry, the tested form may be a part): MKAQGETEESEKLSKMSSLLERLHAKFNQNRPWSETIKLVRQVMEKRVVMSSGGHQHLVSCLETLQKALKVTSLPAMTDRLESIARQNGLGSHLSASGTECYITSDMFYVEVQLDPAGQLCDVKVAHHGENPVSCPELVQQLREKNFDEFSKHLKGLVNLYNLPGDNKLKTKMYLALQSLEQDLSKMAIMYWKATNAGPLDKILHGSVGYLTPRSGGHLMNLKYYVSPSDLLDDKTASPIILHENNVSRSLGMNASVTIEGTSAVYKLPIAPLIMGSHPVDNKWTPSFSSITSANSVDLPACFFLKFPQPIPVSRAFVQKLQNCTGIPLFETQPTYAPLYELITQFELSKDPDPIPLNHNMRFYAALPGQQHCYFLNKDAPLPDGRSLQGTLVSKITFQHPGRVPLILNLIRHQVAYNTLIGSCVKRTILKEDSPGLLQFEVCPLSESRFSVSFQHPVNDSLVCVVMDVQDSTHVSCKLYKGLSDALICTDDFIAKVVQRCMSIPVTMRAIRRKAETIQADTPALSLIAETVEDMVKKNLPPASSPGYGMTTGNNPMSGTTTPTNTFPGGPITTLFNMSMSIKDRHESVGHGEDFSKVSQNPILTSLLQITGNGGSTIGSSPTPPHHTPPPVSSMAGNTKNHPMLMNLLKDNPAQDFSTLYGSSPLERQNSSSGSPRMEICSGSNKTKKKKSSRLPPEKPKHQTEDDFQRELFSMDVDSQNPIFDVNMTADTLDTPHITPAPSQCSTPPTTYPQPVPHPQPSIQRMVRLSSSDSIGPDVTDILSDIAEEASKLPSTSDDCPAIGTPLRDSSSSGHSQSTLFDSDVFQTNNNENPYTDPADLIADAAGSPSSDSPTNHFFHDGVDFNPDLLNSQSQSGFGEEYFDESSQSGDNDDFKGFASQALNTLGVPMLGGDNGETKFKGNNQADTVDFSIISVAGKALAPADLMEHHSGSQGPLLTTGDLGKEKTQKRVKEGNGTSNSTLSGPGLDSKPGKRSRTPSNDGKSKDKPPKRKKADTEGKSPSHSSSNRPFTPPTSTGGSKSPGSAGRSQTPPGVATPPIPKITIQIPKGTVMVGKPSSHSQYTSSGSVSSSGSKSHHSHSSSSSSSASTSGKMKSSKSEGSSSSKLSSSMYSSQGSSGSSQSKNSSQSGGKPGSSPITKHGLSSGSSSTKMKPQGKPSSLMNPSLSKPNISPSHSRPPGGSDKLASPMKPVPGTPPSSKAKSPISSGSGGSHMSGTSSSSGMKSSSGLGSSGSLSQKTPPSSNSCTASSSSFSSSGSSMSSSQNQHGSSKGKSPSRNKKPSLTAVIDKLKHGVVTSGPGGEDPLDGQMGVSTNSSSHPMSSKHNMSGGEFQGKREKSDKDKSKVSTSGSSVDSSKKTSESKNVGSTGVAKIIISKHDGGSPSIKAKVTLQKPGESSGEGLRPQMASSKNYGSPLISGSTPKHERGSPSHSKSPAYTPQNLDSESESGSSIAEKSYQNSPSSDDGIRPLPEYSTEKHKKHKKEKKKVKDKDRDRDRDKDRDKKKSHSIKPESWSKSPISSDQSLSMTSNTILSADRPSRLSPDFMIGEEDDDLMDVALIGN

Ki (PPAR-γ): 28.7 mM
Molecule: Nc1ccc(O)c(C(=O)O)c1 [5-ASA]

amount bound with 5-ASA (5 mM) relative to that with rosiglitazone (10^-5 M) [1]: ~150%
B1: [35S]methionine-labeled human PPAR-γ (receptor, UniProt P37231-1 1-505, looked up)
chain: MGETLGDSPIDPESDSFTDTLSANISQEMTMVDTEMPFWPTNFGISSVDLSVMEDHSHSFDIKPFTTVDFSSISTPHYEDIPFTRTDPVVADYKYDLKLQEYQSAIKVEPASPPYYSEKTQLYNKPHEEPSNSLMAIECRVCGDKASGFHYGVHACEGCKGFFRRTIRLKLIYDRCDLNCRIHKKSRNKCQYCRFQKCLAVGMSHNAIRFGRMPQAEKEKLLAEISSDIDQLNPESADLRALAKHLYDSYIKSFPLTKAKARAILTGKTTDKSPFVIYDMNSLMMGEDKIKFKHITPLQEQSKEVAIRIFQGCQFRSVEAVQEITEYAKSIPGFVNLDLNDQVTLLKYGVHEIIYTMLASLMNKDGVLISEGQGFMTREFLKSLRKPFGDFMEPKFEFAVKFNALELDDSDLAIFIAVIILSGDRPGLLNVKPIEDIQDNLLQALELQLKLNHPESSQLFAKLLQKMTDLRQIVTEHVQLLQVIKKTETDMSLHPLLQEIYKDLY
modifications: [35S]methionine-labeled
